From PubChem BioAssay AID179 (DTP/NCI, 2004)
Calls of active or inactive are those of the source.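 Rule for the calls: active = compounds giving half or more protection of infected cells from virus-caused growth loss, again on retest; inactive = the rest.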

Tested on: CEM cells HIV-1 protection, formazan growth assay
Test: NCI AIDS Antiviral Assay
Conditions: for IC50: measured here: growth of uninfected CEM cells
Procedure, shortened: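 Five concentrations of each compound were applied to infected and uninfected human CEM cells. Protection from HIV-1 was judged from growth measured with a soluble formazan assay.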

Compound	EC50 [µM]	IC50 [µM]	outcome
COc1cc(/C=C\C(=O)O)ccc1O	> 200	> 200	–
O=C1/C(=C/c2ccccc2)CCC/C1=C\c1ccccc1	> 200	8.13	–
C=C(C)CCC1CC=[N+]([O-])OC1C(C)(C)C (stereo unspecified)	> 200	28.8	–
COc1ccc2nc(CC(=N)c3ccc(N(C)C)cc3)ccc2c1	> 200	23.4	–
COc1ccc(C2=C3c4cc(OC)c(OC)cc4CCN3C(=S)SS2)cc1OC	–	–	inactive
N=[N+]=CC(=O)OCC(N)C(=O)O (stereo unspecified)	> 200	2.88	–
O=C(OC1=C(OC(=O)c2ccc(N=Nc3ccccc3)cc2)c2ccccc21)c1ccc(N=Nc2ccccc2)cc1	> 200	> 200	–
O=C1CCCCC(=O)Nc2ccccc2-c2ccccc2N1	–	–	inactive
O=C(O)c1nc2ccccc2n2cccc12	> 200	> 200	–
O=C1Nc2cc(F)ccc2C1=O	> 1510	251	–
NC(N)=NC(CSSCC(N=C(N)N)C(=O)O)C(=O)O (stereo unspecified)	> 200	> 200	–
O=c1c2ccccc2nc(-c2ccccc2)n1NC(=S)Nc1ccc(Cl)cc1[N+](=O)[O-]	> 15.8	> 15.8	–
O=S(=O)(Nc1cccc(F)c1)c1ccc(F)cc1	–	–	inactive
C[N+]1=C(c2ccc[nH]2)CC(C(=O)[O-])CC1 (stereo unspecified)	> 200	> 200	–
CC(C)c1cc(OCC(O)CO)cc(C(C)C)c1 (stereo unspecified)	> 141	> 141	–
CC(Oc1ccc(OCC2CCCCC2)cc1)C(=O)NCc1ccco1 (stereo unspecified)	> 28.2	> 28.2	–
O=C(O)[C@@H]1C[C@@H](O)CN1C(=O)OCc1ccccc1	–	–	inactive

Compound	EC50 [µM]	IC50 [µM]	outcome
C(=Nc1cnc2ccccc2c1)c1cccnc1	> 1070	195	–
CSc1ccccc1NC1=NCCO1	> 200	> 200	–
CC1/C=C/[C@@]2(C)CCC(C(C)(C)O)C2C(O)C[C@](C)(O)/C=C/C1 (stereo partly specified)	–	–	inactive
CN1C(=O)C2(C)SSC1(C)C(=O)N2C	> 200	12	–
O=C(NC(Cc1c[nH]c2ccccc12)C(=O)O)/C(=C/c1ccccc1O)NC(=O)c1ccccc1 (stereo unspecified)	> 200	> 200	–
Cc1cn(C2CC(N=[N+]=[N-])C(CO)O2)c(=O)[nH]c1=O (stereo unspecified)	0.0148	0.316	–
N#Cc1cc2cc3c4c(c2oc1=O)CCCN4CCC3	> 1.95	> 1.95	–
Cc1cc(C)nc(NS(=O)(=O)c2ccc(Nc3c4ccccc4nc4c(C(=O)NCCO)cccc34)cc2)n1	> 200	7.76	–
CC1(C)C(=C(C#N)C#N)C(C)(C)C1=C(C#N)C#N	> 100	> 100	–
O=C(Nc1ccc(C2=NC3CCCCC3N2)cc1)c1ccc(C(=O)Nc2ccc(C3=NC4CCCCC4N3)cc2)cc1 (stereo unspecified)	> 200	9.33	–
CCOP(=O)(OCC)/C(C#N)=C/c1cccc(Oc2ccccc2)c1	> 52.5	30.2	–
Cc1ccc(S(=O)(=O)c2c(N)n(CCN(C)C)c3nc4ccccc4nc23)cc1	> 200	> 200	–
N#C/C=C/c1ccc(Cl)cc1	> 219	> 219	–
Cc1cc(NS(=O)(=O)c2ccc(Nc3c4ccccc4nc4c(C(=O)Nc5ccc(S(N)(=O)=O)cc5)cccc34)cc2)no1	25.1	50.1	–
Cn1cc(S(=O)(=O)NC(=O)Nc2ccc(Cl)cc2)c2ccccc21	> 200	27.5	–
S=C1Cc2c([nH]c3ccccc23)-c2ccccc2N1	> 200	129	–
